Measurements from patent US4968717A, “Phenylacetonitriles which are substituted by basic groups, their preparation and drugs containing these substances” (BASF Aktiengesellschaft, priority 1986, dated 1990).

system: serotonin-induced increase in blood pressure; assay: inhibition of the serotonin-induced increase in blood pressure in the pithed rat on intravenous administration; type: in vivo, male Sprague-Dawley rats; settings: at dose 0.0464 mg/kg
Description: Pithing is effected by means of a rod through the orbit. […] The criterium for effectiveness of a substance is the relative inhibition (Δ%) of the serotonin-induced increase in blood pressure (ΔmmHg). The valuation was effected quantitatively as an analysis of the linear regression (y=a+b x) of log dose (mg/kg) and relative inhibition (Δ%) of the serotonin-induced increase in blood pressure.

Which “relative inhibition (Δ%) of the serotonin-induced increase in blood pressure” value does the source give for `COc1cc(CCN(C)CCCC(C#N)(c2ccc(Cl)cc2)C(C)C)cc(OC)c1` (stereo not shown) [Example 42, 5-[(3,5-dimethoxyphenethyl)-methylamino]-2-(4-chlorophenyl)-2-isopropylvaleronitrile] here?
Its value is 19%.

same assay, conditions: at dose 0.1 mg/kg

Which “relative inhibition (Δ%) of the serotonin-induced increase in blood pressure” value does the source give for `COc1ccc(CCN(C)CCCC(C#N)(c2cc(OC)c(OC)c(OC)c2)C(C)C)cc1OC` (stereo not shown) [Gallopamil, reference compound] here?
The value was 22%.

same assay, conditions: serotonin 0.0215 mg/kg i.v., linear regression of log dose and relative inhibition

For “5-[(3,5-dimethoxyphenethyl)-methylamino]-2-(β,β,β-trifluoroethoxyphenyl)-2-isopropylvaleronitrile [Example 30]”, which “ED 50% (dose which inhibits the serotonin-induced increase in blood pressure by 50%)” value is on record?
Its value is 0.1 mg/kg.

same assay, conditions: serotonin 0.0215 mg/kg i.v., linear regression of log dose and relative inhibition, read-out: ED 50% (dose which inhibits the serotonin-induced increase in blood pressure by 50%)

With `CCOc1cc(CCN(C)CCCC(C#N)(c2ccccc2)C(C)C)cc(OCC)c1` (stereo not shown) [Example 24, 5-[(3,5-diethoxyphenethyl)-methylamino]-2-phenyl-2-isopropylvaleronitrile] as the compound, how does the ED50 read?
The ED50 was 0.1 mg/kg.

For `C=CCC(C#N)(CCCN(C)CCc1ccccc1)c1cccc(Cl)c1` (stereo not shown) [Example 31, 5-[(phenethyl)-methylamino]-2-(3-chlorophenyl)-2-allylvaleronitrile], which ED50 is on record?
The ED50 was 0.464 mg/kg.

Which ED50 does the source give for `COc1cc(CCN(C)CCCC(C#N)(c2ccc(Cl)c(Cl)c2)C(C)C)cc(OC)c1` (stereo not shown) [Example 41, 5-[(3,5-dimethoxyphenethyl)-methylamino]-2-(3,4-dichlorophenyl)-2-isopropylvaleronitrile] here?
The ED50 was 0.1 mg/kg.

For `COc1cc(CCN(C)CCCC(C#N)(c2ccccc2)C(C)C)cc(OC)c1` (stereo not shown) [Example 14, 5-[(3,5-dimethoxyphenethyl)-methylamino]-2-phenyl-2-isopropylvaleronitrile], which ED50 is on record?
The ED50 was 0.0464 mg/kg.

Which ED50 does the source give for `CCOc1cccc(C(C#N)(CCCN(C)CCc2cc(OC)cc(OC)c2)C(C)C)c1` (stereo not shown) [Example 17, 5-[(3,5-dimethoxyphenethyl)-methylamino]-2-(3-ethoxy-phenyl)-2-isopropylvaleronitrile] here?
Its ED50 is 0.1 mg/kg.

With `COc1cc(CCN(C)CCCC(C#N)(c2ccc(Cl)cc2)C(C)C)cc(OC)c1` (stereo not shown) [Example 42, 5-[(3,5-dimethoxyphenethyl)-methylamino]-2-(4-chlorophenyl)-2-isopropylvaleronitrile] as the compound, how does the ED50 read?
Its ED50 is greater than 0.0464 mg/kg.

Which ED50 does the source give for `COc1cccc(CCN(C)CCCC(C#N)(c2ccc(OC)c(OC)c2)C(C)C)c1` (racemic) [Example 57, (RS)-5-[(3-methoxyphenethyl)-methylamino]-2-(3,4-dimethoxyphenyl)-2-isopropylvaleronitrile] here?
The ED50 was 0.0423 mg/kg.

Which ED50 does the source give for `COc1cc(OC)cc(C(C#N)(CCCN(C)CCc2ccc(Cl)c(Cl)c2)C(C)C)c1` (stereo not shown) [Example 7, 5-[(3,4-Dichlorophenethyl)-methylamino]-2-(3,5-dimethoxyphenyl)-2-isopropylvaleronitrile] here?
Its ED50 is 0.1 mg/kg.

For `COc1cc(CCN(C)CCCC(C#N)(c2cccc(OC)c2)C(C)C)cc(OC)c1` (stereo not shown) [Example 1, 5-[(3,5-Dimethoxyphenethyl)-methylamino]-2-(3-methoxyphenyl)-2-isopropylvaleronitrile], which ED50 is on record?
Its ED50 is 0.0464 mg/kg.

Which ED50 does the source give for `COc1cccc(CCN(C)CCCC(C#N)(c2cc(OC)c(OC)c(OC)c2)C(C)C)c1` (stereo not shown) [Example 36, 5-[(3-methoxyphenethyl)-methylamino]-2-(3,4,5-trimethoxyphenyl)-2-isopropylvaleronitrile] here?
The ED50 was 0.0464 mg/kg.

Which ED50 does the source give for `COc1cc(OC)cc(C(C#N)(CCCN(C)CCc2ccc(C)c(C)c2)C(C)C)c1` (stereo not shown) [Example 20, 5-[(3,4-xylylethyl)-methylamino]-2-(3,5-dimethoxyphenyl)-2-isopropylvaleronitrile] here?
The ED50 was 0.1 mg/kg.

Which ED50 does the source give for `COc1cc(C(C#N)(CCCN(C)CCc2ccc3c(c2)COCO3)C(C)C)cc(OC)c1OC` (stereo not shown) [Example 39, 5-[(1,3-benzodioxan-6-ylethyl)-methylamino]-2-(3,4,5-trimethoxyphenyl)-2-isopropylvaleronitrile] here?
Its ED50 is 0.0395 mg/kg.

Which ED50 does the source give for `COc1cc(C(C#N)(CCCN(C)CCc2cccc(C(F)(F)F)c2)C(C)C)cc(OC)c1OC` (stereo not shown) [Example 61, 5-[(3-trifluoromethylphenethyl)-methylamino]-2-(3,4,5-trimethoxyphenyl)-2-isopropylvaleronitrile] here?
Its ED50 is 0.0681 mg/kg.

For `COc1cccc(CCN(C)CCC[C@@](C#N)(c2ccc(OC)c(OC)c2)C(C)C)c1` [Example 58, (S)-5-[(3-methoxyphenethyl)-methylamino]-2-(3,4-dimethoxyphenyl)-2-isopropylvaleronitrile], which ED50 is on record?
Its ED50 is 0.0201 mg/kg.

With `C=CCC(C#N)(CCCN(C)CCc1cccc(OC)c1)c1cccc(Cl)c1` (stereo not shown) [Example 32, 5-[(3-methoxyphenethyl)-methylamino]-2-(3-chlorophenyl)-2-allylvaleronitrile] as the compound, how does the ED50 read?
The ED50 was 0.316 mg/kg.

With `COc1cc(C(C#N)(CCCN(C)CCc2cccc([N+](=O)[O-])c2)C(C)C)cc(OC)c1OC` (stereo not shown) [Example 37, 5-[(3-nitrophenethyl)-methylamino]-2-(3,4,5-trimethoxyphenyl)-2-isopropylvaleronitrile] as the compound, how does the ED50 read?
The ED50 was 0.0464 mg/kg.

With `COc1cc(C(C#N)(CCCN(C)CCc2ccccc2)C(C)C)cc(OC)c1OC` (stereo not shown) [Example 60, 5-[(phenethyl)-methylamino]-2-(3,4,5-trimethoxyphenyl)-2-isopropylvaleronitrile] as the compound, how does the ED50 read?
The ED50 was 0.0464 mg/kg.

With `CCOc1cccc(C(C#N)(CCCN(C)CCc2ccc(OC)c(OC)c2)C(C)C)c1` (stereo not shown) [Example 44, 5-[(3,4-dimethoxyphenethyl)-methylamino]-2-(3-ethoxy-phenyl)-2-isopropylvaleronitrile] as the compound, how does the ED50 read?
Its ED50 is 0.0464 mg/kg.

Which ED50 does the source give for `COc1ccc(CCN(C)CCCC(C#N)(c2cc(OC)c(OC)c(OC)c2)C(C)C)cc1OC` (stereo not shown) [Gallopamil, reference compound] here?
Its ED50 is 0.1 mg/kg.

With `COc1cccc(CCN(C)CCCC(C#N)(c2ccccc2)C(C)C)c1` (stereo not shown) [Example 13, 5-[(3-methoxyphenethyl)-methylamino]-2-phenyl-2-isopropylvaleronitrile] as the compound, how does the ED50 read?
The ED50 was 0.0464 mg/kg.

With `COc1cc(OC)cc(C(C#N)(CCCN(C)CCc2ccccc2)C(C)C)c1` (stereo not shown) [Example 5, 5-[(Phenethyl)methylamino]-2-(3,5-dimethoxyphenyl)-2-isopropylvaleronitrile] as the compound, how does the ED50 read?
The ED50 was 0.0464 mg/kg.

Which ED50 does the source give for `CCOc1cc(CCN(C)CCCC(C#N)(c2cc(OC)cc(OC)c2)C(C)C)cc(OCC)c1` (stereo not shown) [Example 19, 5-[(3,5-diethoxyphenethyl)-methylamino]-2-(3,5-dimethoxyphenyl)-2-isopropylvaleronitrile] here?
The ED50 was 0.1 mg/kg.

Which ED50 does the source give for `COc1cccc(CCN(C)CCCC(C#N)(c2cc(OC)cc(OC)c2)C(C)C)c1` (stereo not shown) [Example 2, 5-[(3-Methoxyphenethyl)-methylamino]-2-(3,5-dimethoxyphenyl)-2-isopropylvaleronitrile] here?
Its ED50 is 0.073 mg/kg.

Which ED50 does the source give for `COc1cccc(CCN(C)CCCC(C#N)(c2cccc(OC)c2)C(C)C)c1` (stereo not shown) [Example 4, 5-[(3-Methoxyphenethyl)-methylamino]-2-(3-methoxy-phenyl)-2-isopropylvaleronitrile] here?
The ED50 was 0.0318 mg/kg.

With `COc1cc(OC)cc(C(C#N)(CCCN(C)CCc2ccc3c(c2)OCO3)C(C)C)c1` (stereo not shown) [Example 27, 5-[(3,4-methylenedioxyphenethyl)-methylamino]-2-(3,5-dimethoxyphenyl)-2-isopropylvaleronitrile] as the compound, how does the ED50 read?
Its ED50 is 0.0464 mg/kg.

With `COc1cc(CCN(C)CCCC(C#N)(C(C)C)C2CCc3ccccc3C2)cc(OC)c1` (stereo not shown) [Example 43, 5-[(3,5-dimethoxyphenethyl)-methylamino]-2-(1,2,3,4-tetrahydronaphth-2-yl)-2-isopropylvaleronitrile] as the compound, how does the ED50 read?
Its ED50 is 0.215 mg/kg.

Which ED50 does the source give for `COc1cc(OC)cc(C(C#N)(CCCN(C)CCc2ccc(Cl)cc2)C(C)C)c1` (stereo not shown) [Example 6, 5-[(4-Chlorophenethyl)-methylamino]-2-(3,5-dimethoxyphenyl)-2-isopropylvaleronitrile] here?
The ED50 was 0.1 mg/kg.

For `COc1cc(CCN(C)CCCC(C#N)(c2cc(OC)cc(OC)c2)C(C)C)cc(OC)c1` (stereo not shown) [Example 59, 5-[(3,5-dimethoxyphenethyl)-methylamino]-2-(3,5-dimethoxyphenyl)-2-isopropylvaleronitrile], which ED50 is on record?
The ED50 was 0.0464 mg/kg.

Which ED50 does the source give for `COc1cc(C(C#N)(CCCN(C)CCc2cccc(Cl)c2)C(C)C)cc(OC)c1OC` (stereo not shown) [Example 38, 5-[(3-chlorophenethyl)-methylamino]-2-(3,4,5-trimethoxyphenyl)-2-isopropylvaleronitrile] here?
Its ED50 is 0.0681 mg/kg.

Which ED50 does the source give for `COc1cccc(C(C#N)(CCCN(C)CCc2ccccc2)C(C)C)c1` (stereo not shown) [Example 3, 5-[(Phenethyl)-methylamino]-2-(3-methoxyphenyl)-2-isopropylvaleronitrile] here?
Its ED50 is 0.0464 mg/kg.

For `COc1ccc(C(C#N)(CCCN(C)CCc2ccc(Cl)c(Cl)c2)C(C)C)cc1OC` (stereo not shown) [Example 40, 5-[(3,4-dichlorophenethyl)-methylamino]-2-(3,4-dimethoxyphenyl)-2-isopropylvaleronitrile], which ED50 is on record?
Its ED50 is 0.1 mg/kg.

Which ED50 does the source give for `COc1cc(OC)cc(C(C#N)(CCCN(C)CCc2cccc(C(F)(F)F)c2)C(C)C)c1` (stereo not shown) [Example 8, 5-[(3-Trifluoromethylphenethyl)-methylamino]-2-(3,5-dimethoxyphenyl)-2-isopropylvaleronitrile] here?
The ED50 was 0.0499 mg/kg.

system: serotonin; assay: not given; settings: literature; versus known serotonin antagonists; cited from earlier work

With `COc1ccc(CCN(C)CCCC(C#N)(c2cc(OC)c(OC)c(OC)c2)C(C)C)cc1OC` (stereo not shown) [Gallopamil, reference compound] as the compound, how does the “antiserotonin action compared with known serotonin antagonists” value read?
The value was “not very pronounced”.

With `COc1ccc(CCN(C)CCCC(C#N)(c2ccc(OC)c(OC)c2)C(C)C)cc1OC` (stereo not shown) [Verapamil] as the compound, how does the “antiserotonin action compared with known serotonin antagonists” value read?
The value was “not very pronounced”.
